Assay results: PubChem BioAssay (NCI)
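A five-concentration, 48-hour dose response in 96-well plates underlies each endpoint, interpolated linearly between surrounding concentrations. TGI: total growth inhibition.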

Legend:
Assay in all cases: growth of human tumour cells (NCI), 48 h
786-0 renal = tested on: 786-0 renal
A498 renal = tested on: A498 renal
A549 NSCLC = tested on: A549 NSCLC
ACHN renal = tested on: ACHN renal
BT-549 breast = tested on: BT-549 breast
CAKI-1 renal = tested on: CAKI-1 renal
CCRF-CEM leukemia = tested on: CCRF-CEM leukemia
COLO 205 colon = tested on: COLO 205 colon
DU-145 prostate = tested on: DU-145 prostate
EKVX NSCLC = tested on: EKVX NSCLC
HCC-2998 colon = tested on: HCC-2998 colon
HCT-116 colon = tested on: HCT-116 colon
HCT-15 colon = tested on: HCT-15 colon
HL-60(TB) leukemia = tested on: HL-60(TB) leukemia
HOP-62 NSCLC = tested on: HOP-62 NSCLC
HOP-92 NSCLC = tested on: HOP-92 NSCLC
HS 578T breast = tested on: HS 578T breast
HT29 colon = tested on: HT29 colon
IGROV1 ovarian = tested on: IGROV1 ovarian
K-562 leukemia = tested on: K-562 leukemia
KM12 colon = tested on: KM12 colon
LOX IMVI melanoma = tested on: LOX IMVI melanoma
M14 melanoma = tested on: M14 melanoma
MALME-3M melanoma = tested on: MALME-3M melanoma
MCF7 breast = tested on: MCF7 breast
MDA-MB-231 breast = tested on: MDA-MB-231 breast
MDA-MB-435 = tested on: MDA-MB-435
MDA-N = tested on: MDA-N
MOLT-4 leukemia = tested on: MOLT-4 leukemia
NCI-H226 lung = tested on: NCI-H226 lung
NCI-H23 lung = tested on: NCI-H23 lung
NCI-H460 lung = tested on: NCI-H460 lung
NCI-H522 lung = tested on: NCI-H522 lung
NCI/ADR-RES ovarian = tested on: NCI/ADR-RES ovarian
OVCAR-3 ovarian = tested on: OVCAR-3 ovarian
OVCAR-4 ovarian = tested on: OVCAR-4 ovarian
OVCAR-5 ovarian = tested on: OVCAR-5 ovarian
OVCAR-8 ovarian = tested on: OVCAR-8 ovarian
PC-3 prostate = tested on: PC-3 prostate
RPMI-8226 leukemia = tested on: RPMI-8226 leukemia
RXF 393 renal = tested on: RXF 393 renal
SF-268 CNS = tested on: SF-268 CNS
SF-295 CNS = tested on: SF-295 CNS
SF-539 CNS = tested on: SF-539 CNS
SK-MEL-2 melanoma = tested on: SK-MEL-2 melanoma
SK-MEL-28 melanoma = tested on: SK-MEL-28 melanoma
SK-MEL-5 melanoma = tested on: SK-MEL-5 melanoma
SK-OV-3 ovarian = tested on: SK-OV-3 ovarian
SN12C renal = tested on: SN12C renal
SNB-19 CNS = tested on: SNB-19 CNS
SNB-75 CNS = tested on: SNB-75 CNS
SR leukemia = tested on: SR leukemia
SW-620 colon = tested on: SW-620 colon
T-47D breast = tested on: T-47D breast
TK-10 renal = tested on: TK-10 renal
U251 CNS = tested on: U251 CNS
UACC-257 melanoma = tested on: UACC-257 melanoma
UACC-62 melanoma = tested on: UACC-62 melanoma
UO-31 renal = tested on: UO-31 renal

SMILES: Cc1cc(C)c(NC(=S)NC(=O)c2ccccc2)cc1C
- TGI (786-0 renal): > 100 µM
- TGI (A498 renal): > 100 µM
- TGI (A549 NSCLC): > 100 µM
- TGI (ACHN renal): > 100 µM
- TGI (BT-549 breast): > 100 µM
- TGI (CAKI-1 renal): > 100 µM
- TGI (CCRF-CEM leukemia): > 100 µM
- TGI (COLO 205 colon): > 100 µM
- TGI (DU-145 prostate): > 100 µM
- TGI (EKVX NSCLC): > 100 µM
- TGI (HCC-2998 colon): > 100 µM
- TGI (HCT-116 colon): > 100 µM
- TGI (HCT-15 colon): > 100 µM
- TGI (HL-60(TB) leukemia): > 100 µM
- TGI (HOP-62 NSCLC): > 100 µM
- TGI (HOP-92 NSCLC): > 100 µM
- TGI (HS 578T breast): > 100 µM
- TGI (HT29 colon): > 100 µM
- TGI (IGROV1 ovarian): > 100 µM
- TGI (K-562 leukemia): > 100 µM
- TGI (KM12 colon): > 100 µM
- TGI (LOX IMVI melanoma): > 100 µM
- TGI (M14 melanoma): > 100 µM
- TGI (MALME-3M melanoma): > 100 µM
- TGI (MCF7 breast): > 100 µM
- TGI (MDA-MB-231 breast): > 100 µM
- TGI (MDA-MB-435): > 100 µM
- TGI (MDA-N): > 100 µM
- TGI (MOLT-4 leukemia): > 100 µM
- TGI (NCI-H226 lung): > 100 µM
- TGI (NCI-H23 lung): > 100 µM
- TGI (NCI-H460 lung): > 100 µM
- TGI (NCI-H522 lung): > 100 µM
- TGI (NCI/ADR-RES ovarian): > 100 µM
- TGI (OVCAR-3 ovarian): > 100 µM
- TGI (OVCAR-4 ovarian): > 100 µM
- TGI (OVCAR-5 ovarian): > 100 µM
- TGI (OVCAR-8 ovarian): > 100 µM
- TGI (PC-3 prostate): > 100 µM
- TGI (RPMI-8226 leukemia): > 100 µM
- TGI (RXF 393 renal): > 100 µM
- TGI (SF-268 CNS): > 100 µM
- TGI (SF-295 CNS): > 100 µM
- TGI (SF-539 CNS): > 100 µM
- TGI (SK-MEL-2 melanoma): > 100 µM
- TGI (SK-MEL-28 melanoma): > 100 µM
- TGI (SK-MEL-5 melanoma): > 100 µM
- TGI (SK-OV-3 ovarian): > 100 µM
- TGI (SN12C renal): > 100 µM
- TGI (SNB-19 CNS): > 100 µM
- TGI (SNB-75 CNS): > 100 µM
- TGI (SR leukemia): > 100 µM
- TGI (SW-620 colon): > 100 µM
- TGI (T-47D breast): > 100 µM
- TGI (TK-10 renal): > 100 µM
- TGI (U251 CNS): > 100 µM
- TGI (UACC-257 melanoma): > 100 µM
- TGI (UACC-62 melanoma): > 100 µM
- TGI (UO-31 renal): > 100 µM

SMILES: O=C1c2cc(Cl)ccc2NC(=NCCCl)C2CSCN12 (configuration not stated)
- TGI (786-0 renal): > 100 µM
- TGI (A498 renal): > 100 µM
- TGI (A549 NSCLC): > 100 µM
- TGI (ACHN renal): > 100 µM
- TGI (BT-549 breast): > 100 µM
- TGI (CAKI-1 renal): > 100 µM
- TGI (CCRF-CEM leukemia): > 100 µM
- TGI (COLO 205 colon): > 100 µM
- TGI (DU-145 prostate): > 100 µM
- TGI (EKVX NSCLC): > 100 µM
- TGI (HCC-2998 colon): > 100 µM
- TGI (HCT-116 colon): > 100 µM
- TGI (HCT-15 colon): > 100 µM
- TGI (HOP-62 NSCLC): > 100 µM
- TGI (HS 578T breast): > 100 µM
- TGI (HT29 colon): > 100 µM
- TGI (IGROV1 ovarian): > 100 µM
- TGI (K-562 leukemia): > 100 µM
- TGI (KM12 colon): > 100 µM
- TGI (LOX IMVI melanoma): > 100 µM
- TGI (M14 melanoma): > 100 µM
- TGI (MALME-3M melanoma): > 100 µM
- TGI (MCF7 breast): > 100 µM
- TGI (MDA-MB-231 breast): > 100 µM
- TGI (MDA-MB-435): > 100 µM
- TGI (MDA-N): > 100 µM
- TGI (MOLT-4 leukemia): > 100 µM
- TGI (NCI-H226 lung): > 100 µM
- TGI (NCI-H460 lung): > 100 µM
- TGI (NCI-H522 lung): > 100 µM
- TGI (NCI/ADR-RES ovarian): > 100 µM
- TGI (OVCAR-3 ovarian): > 100 µM
- TGI (OVCAR-4 ovarian): > 100 µM
- TGI (OVCAR-5 ovarian): > 100 µM
- TGI (OVCAR-8 ovarian): > 100 µM
- TGI (PC-3 prostate): > 100 µM
- TGI (RPMI-8226 leukemia): > 100 µM
- TGI (RXF 393 renal): > 100 µM
- TGI (SF-268 CNS): > 100 µM
- TGI (SF-295 CNS): > 100 µM
- TGI (SK-MEL-2 melanoma): > 100 µM
- TGI (SK-MEL-28 melanoma): > 100 µM
- TGI (SK-MEL-5 melanoma): > 100 µM
- TGI (SK-OV-3 ovarian): > 100 µM
- TGI (SN12C renal): > 100 µM
- TGI (SNB-19 CNS): > 100 µM
- TGI (SR leukemia): > 100 µM
- TGI (SW-620 colon): > 100 µM
- TGI (T-47D breast): > 100 µM
- TGI (TK-10 renal): > 100 µM
- TGI (U251 CNS): > 100 µM
- TGI (UACC-257 melanoma): > 100 µM
- TGI (UACC-62 melanoma): > 100 µM
- TGI (UO-31 renal): > 100 µM

SMILES: Cc1noc(NC2=CC(=O)C(=O)c3ccccc32)c1C
- TGI (786-0 renal): > 100 µM
- TGI (A498 renal): > 100 µM
- TGI (A549 NSCLC): 55.3 µM
- TGI (ACHN renal): > 100 µM
- TGI (BT-549 breast): 50.2 µM
- TGI (CAKI-1 renal): > 100 µM
- TGI (COLO 205 colon): > 100 µM
- TGI (DU-145 prostate): > 100 µM
- TGI (EKVX NSCLC): > 100 µM
- TGI (HCT-116 colon): > 100 µM
- TGI (HCT-15 colon): > 100 µM
- TGI (HL-60(TB) leukemia): 52.2 µM
- TGI (HOP-62 NSCLC): > 100 µM
- TGI (HOP-92 NSCLC): 78.1 µM
- TGI (HS 578T breast): > 100 µM
- TGI (HT29 colon): 88 µM
- TGI (K-562 leukemia): 0.872 µM
- TGI (KM12 colon): 32.7 µM
- TGI (LOX IMVI melanoma): > 100 µM
- TGI (M14 melanoma): > 100 µM
- TGI (MALME-3M melanoma): 17.6 µM
- TGI (MCF7 breast): 17.9 µM
- TGI (MDA-MB-231 breast): > 100 µM
- TGI (MDA-MB-435): 0.397 µM
- TGI (MDA-N): 1.57 µM
- TGI (MOLT-4 leukemia): 47.4 µM
- TGI (NCI-H226 lung): > 100 µM
- TGI (NCI-H23 lung): 35.5 µM
- TGI (NCI-H460 lung): > 100 µM
- TGI (NCI-H522 lung): 79.2 µM
- TGI (NCI/ADR-RES ovarian): 21.4 µM
- TGI (OVCAR-3 ovarian): > 100 µM
- TGI (OVCAR-4 ovarian): > 100 µM
- TGI (OVCAR-5 ovarian): > 100 µM
- TGI (OVCAR-8 ovarian): > 100 µM
- TGI (PC-3 prostate): > 100 µM
- TGI (RPMI-8226 leukemia): 36 µM
- TGI (SF-268 CNS): > 100 µM
- TGI (SF-295 CNS): > 100 µM
- TGI (SF-539 CNS): 14.1 µM
- TGI (SK-MEL-2 melanoma): 5.8 µM
- TGI (SK-MEL-28 melanoma): > 100 µM
- TGI (SK-MEL-5 melanoma): 3.75 µM
- TGI (SK-OV-3 ovarian): > 100 µM
- TGI (SN12C renal): 3.7 µM
- TGI (SNB-19 CNS): > 100 µM
- TGI (SNB-75 CNS): 82.5 µM
- TGI (SR leukemia): > 100 µM
- TGI (T-47D breast): > 100 µM
- TGI (TK-10 renal): > 100 µM
- TGI (U251 CNS): > 100 µM
- TGI (UACC-257 melanoma): 64 µM
- TGI (UACC-62 melanoma): 22.9 µM
- TGI (UO-31 renal): > 100 µM
